Laboratory results reported in PMC11865548 (Nature Communications, 2025).

Columns and labels:
MexL [1] = molecular target: T1, MexL (Pseudomonas aeruginosa, UniProt Q9HXW2); assay: thermal shift; type: biochemical
T1 sequence (Q9HXW2 1-212): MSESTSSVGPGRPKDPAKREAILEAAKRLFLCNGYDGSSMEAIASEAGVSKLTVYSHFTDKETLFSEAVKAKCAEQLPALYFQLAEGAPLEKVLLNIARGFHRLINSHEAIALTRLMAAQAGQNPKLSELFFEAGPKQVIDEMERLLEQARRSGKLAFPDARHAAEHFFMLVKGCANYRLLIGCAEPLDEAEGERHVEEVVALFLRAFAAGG

MexL [2] = molecular target: T1, MexL; assay: BLI; type: binding

## Oc1cc(Cl)ccc1Oc1ccc(Cl)cc1Cl [TCS, triclosan]
MexL [1]
  thermal shift (Tm decrease) and EMSA interference with DNA binding: these two antimicrobials both can interfere with the DNA-binding activity of MexL in EMSA

## CN(C)[C@@H]1C(O)=C(C(N)=O)C(=O)[C@@]2(O)C(O)=C3C(=O)c4c(O)cccc4[C@@](C)(O)[C@H]3C[C@@H]12 [TET, tetracycline]
MexL [1]
  thermal shift (Tm decrease) and EMSA interference with DNA binding: both TET and TCS also significantly reduce the Tm values of MexL (Fig. 6b), indicating their interaction with MexL

## Cn1c2cccc(=O)c-2nc2ccccc21 [PYO, pyocyanin]
MexL [2]
  Kd: 84.2 ± 1.8 µM
